Laboratory results taken from patent US20210196676A1, “TREATMENT OF VIRAL INFECTIONS AND VIRALLY ASSOCIATED LESIONS WITH SEQUITERPENE LACTONES” (The Board of Regents of the University of Texas System, priority 2018, published 2021).

What was measured:
warts = conditions: human, in vivo; cited from earlier work
ankle wart = assay: Topical treatment of a large ankle wart, case of a person; assay type: in vivo, human
in vitro [1] = conditions: human
in vitro [2] = conditions: human; remark: listed apart in the source
HPV = conditions: after three months of treatment, confirmed by smears and biopsies; cited from earlier work

In the case of `O=[N+]([O-])[O-].[Ag+]` [silver nitrate, Silver nitrate], the improvement in warts (warts) is given as 26%.

For `CC(=O)Oc1ccccc1C(=O)O` [crushed aspirin, aspirin], the “wart after treatment was stopped” value (ankle wart; treatment stopped) was “regrew” and the wart size (ankle wart; under a commercial band aid for several weeks) was “slightly reduced in size”.

In the case of `C=C1C(=O)O[C@@H]2C[C@@H](C)[C@@H]3C=CC(=O)[C@@]3(C)[C@@H](O)[C@H]12` (racemic) [H. tox, (±)-4-Hydroxy-4a,8-dimethyl-3,3a,4a,7a,8,9,9a-octahydroazuleno[6,5-b]furan-2,5-dione], the IC50 (in vitro [1]) is reported as roughly 1000 nM and the IC50 (in vitro [2]) is reported as roughly 1000 nM.

In the case of `Cc1cccc(C)c1OCC(=O)N[C@@H](Cc1ccccc1)[C@@H](O)C[C@H](Cc1ccccc1)NC(=O)[C@H](C(C)C)N1CCCNC1=O` [Lopinavir], the “women with high-grade disease having normal cervical conditions” value (HPV) is listed as 82.6%.
